Experimental data as given in patent publication US20230295212A1 (ROME Therapeutics, Inc., priority 2022, published 2023).

Target: T1, LINE1 reverse transcriptase (Homo sapiens, UniProt O00370)
T1 construct: expressed in transfected cells; host or cells: HeLa Tet-On 3G (Takara, cat no 631183)
Experiment: Stable artificial-intron Cis LINE1 reporter assay (HeLa Tet-On 3G, Firefly luciferase)
Type: cell-based
Conditions: HeLa L1 artificial-intron reporter cells, doxycycline 500 ng/mL, 72 h, class symbols
How it was run: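 HeLa Tet-On 3G clone stably carrying a bi-directional doxycycline-inducible artificial-intron LINE1 reporter, plated at 8,000 cells/well onto serially diluted compound. Expression induced with 500 ng/mL doxycycline (final); Firefly luciferase luminescence (Dual-Glo) read 72 h after plating as LINE1 activity.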

T1 sequence (O00370 whole entry, looked up): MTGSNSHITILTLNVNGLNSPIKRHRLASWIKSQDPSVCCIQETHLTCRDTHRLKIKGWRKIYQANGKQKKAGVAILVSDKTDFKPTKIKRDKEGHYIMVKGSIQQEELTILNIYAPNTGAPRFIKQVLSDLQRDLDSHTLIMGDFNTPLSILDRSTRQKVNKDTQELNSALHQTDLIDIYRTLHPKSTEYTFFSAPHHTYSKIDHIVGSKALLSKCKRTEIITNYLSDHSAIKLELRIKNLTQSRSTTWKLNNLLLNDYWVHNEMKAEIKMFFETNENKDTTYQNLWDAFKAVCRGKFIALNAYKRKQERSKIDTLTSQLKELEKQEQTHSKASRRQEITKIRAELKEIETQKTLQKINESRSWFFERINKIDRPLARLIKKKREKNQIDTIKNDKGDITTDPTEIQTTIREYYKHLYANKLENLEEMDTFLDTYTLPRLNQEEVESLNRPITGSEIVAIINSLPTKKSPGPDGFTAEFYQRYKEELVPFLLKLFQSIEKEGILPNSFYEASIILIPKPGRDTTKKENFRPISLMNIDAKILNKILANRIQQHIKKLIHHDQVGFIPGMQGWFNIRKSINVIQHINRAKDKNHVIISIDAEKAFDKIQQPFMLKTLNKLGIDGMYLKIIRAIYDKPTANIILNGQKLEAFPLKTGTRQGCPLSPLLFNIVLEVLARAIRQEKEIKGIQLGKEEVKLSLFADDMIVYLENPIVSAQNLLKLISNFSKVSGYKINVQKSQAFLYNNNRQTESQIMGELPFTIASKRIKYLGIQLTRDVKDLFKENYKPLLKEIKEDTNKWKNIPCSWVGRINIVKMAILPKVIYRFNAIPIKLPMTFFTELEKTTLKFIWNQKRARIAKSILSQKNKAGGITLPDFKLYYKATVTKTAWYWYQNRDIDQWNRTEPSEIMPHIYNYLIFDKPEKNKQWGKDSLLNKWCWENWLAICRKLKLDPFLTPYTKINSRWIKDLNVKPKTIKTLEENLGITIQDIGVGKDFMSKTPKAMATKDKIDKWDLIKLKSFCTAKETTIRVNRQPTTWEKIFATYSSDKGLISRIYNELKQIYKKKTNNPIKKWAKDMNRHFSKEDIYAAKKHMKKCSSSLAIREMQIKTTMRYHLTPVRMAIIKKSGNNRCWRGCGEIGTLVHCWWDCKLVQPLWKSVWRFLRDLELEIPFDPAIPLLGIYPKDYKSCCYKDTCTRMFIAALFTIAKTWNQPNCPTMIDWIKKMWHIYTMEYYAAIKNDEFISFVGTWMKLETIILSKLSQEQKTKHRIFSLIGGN

IC50 [nM] | SMILES
> 1000 | Nc1nc(=O)n([C@@H]2O[C@@](CO)(CI)[C@@H](O)[C@@H]2F)cc1F [Compound 129, 4-amino-5-fluoro-1-((2R,3S,4R,5R)-3-fluoro-4-hydroxy-5-(hydroxymethyl)-5-(iodomethyl)tetrahydrofuran-2-yl)pyrimidin-2(1H)-one]
100 to 250 | Nc1nc(=O)n([C@@H]2O[C@](/C=C/Cl)(CO)[C@@H](O)[C@@H]2F)cc1F [Compound 131, 4-amino-1-[(2R,3S,4R,5R)-5(E)-(2-chloroethenyl)-3-fluoro-4-hydroxy-5-(hydroxymethyl)oxolan-2-yl]-5-fluoropyrimidin-2-one]
> 1000 | Nc1nc(=O)n([C@@H]2O[C@](/C=C\Cl)(CO)[C@@H](O)[C@@H]2F)cc1F [Compound 132, 4-amino-1-[(2R,3S,4R,5R)-5-(2-chloroethenyl)-3-fluoro-4-hydroxy-5(Z)-(hydroxymethyl)oxolan-2-yl]-5-fluoropyrimidin-2-one]
> 1000 | CSC[C@]1(CO)O[C@@H](n2cc(F)c(N)nc2=O)[C@@H](F)[C@@H]1O [Compound 135]
250 to 1000 | Nc1nc(=O)n([C@@H]2O[C@@](CO)(CCl)[C@@H](O)[C@@H]2Cl)cc1F [Compound 137, 4-amino-1-[(2R,3S,4R,5R)-3-chloro-5-(chloromethyl)-4-hydroxy-5-(hydroxymethyl)oxolan-2-yl]-5-fluoropyrimidin-2-one]

More lines, now with the values behind:

SMILES | IC50 [nM]
Nc1ccn([C@@H]2O[C@@](CO)(CCl)[C@@H](O)[C@@H]2O)c(=O)n1 [Compound 114, 4-amino-1-((2R,3S,4S,5R)-5-(chloromethyl)-3,4-dihydroxy-5-(hydroxymethyl)tetrahydrofuran-2-yl)pyrimidin-2(1H)-one] | 100 to 250
CC[C@]1(CO)O[C@@H](n2cnc3c(O)nc(N)nc32)C[C@@H]1O [Compound 115, 2-amino-9-((2R,4S,5R)-5-ethyl-4-hydroxy-5-(hydroxymethyl)tetrahydrofuran-2-yl)-1,9-dihydro-6H-purin-6-one] | ≤ 50
C#C[C@]1(CO)O[C@@H](n2cc(F)c(N)nc2=O)[C@@H](O)[C@@H]1O [Compound 116, 4-amino-1-((2R,3S,4S,5R)-5-ethynyl-3,4-dihydroxy-5-(hydroxymethyl)tetrahydrofuran-2-yl)-5-fluoropyrimidin-2(1H)-one] | 100 to 250
Nc1ccn([C@@H]2O[C@@](CO)(CCl)[C@@H](O)C2(F)F)c(=O)n1 [Compound 119, 4-amino-1-((2R,4R,5R)-5-(chloromethyl)-3,3-difluoro-4-hydroxy-5-(hydroxymethyl)tetrahydrofuran-2-yl)pyrimidin-2(1H)-one] | 50 to 100
Nc1nc(=O)n([C@H]2C[C@H](O)[C@](CO)(C3CC3)O2)cc1F [Compound 120, 4-amino-1-[(2R,4S,5R)-5-cyclopropyl-4-hydroxy-5-(hydroxymethyl)oxolan-2-yl]-5-fluoropyrimidin-2-one] | 250 to 1000
Nc1ccn([C@@H]2O[C@@](CO)(C3CC3)[C@@H](O)[C@@H]2F)c(=O)n1 [Compound 121, 4-amino-1-[(2R,3S,4R,5R)-5-cyclopropyl-3-fluoro-4-hydroxy-5-(hydroxymethyl)oxolan-2-yl] pyrimidin-2-one] | 100 to 250
Nc1nc(=O)n([C@@H]2O[C@@](CO)(C3CC3)[C@@H](O)[C@@H]2F)cc1F [Compound 122, 4-amino-1-[(2R,3S,4R,5R)-5-cyclopropyl-3-fluoro-4-hydroxy-5-(hydroxymethyl)oxolan-2-yl]-5-fluoropyrimidin-2-one] | 250 to 1000
Nc1nc(=O)n([C@@H]2O[C@](/C=C\F)(CO)[C@@H](O)[C@@H]2F)cc1F [Compound 123, 4-amino-5-fluoro-1-((2R,3S,4R,5R)-3-fluoro-5-((Z)-2-fluorovinyl)-4-hydroxy-5-(hydroxymethyl)tetrahydrofuran-2-yl)pyrimidin-2(1H)-one] | 50 to 100
